{"source": "patent US7781393B2", "about": "“Methods for inhibiting tumor cell growth” (Dana-Farber Cancer Institute, Inc., priority 2004, dated 2010)", "key": {"primary MM tumor cells": {"system": "primary MM tumor cells", "assay": "MTT survival assay, short-term culture of primary MM tumor cells", "type": "cell-based, human", "details": "all primary patient samples tested", "description": "The dexamethasone (Dex)-sensitive parental line MM-1S and its Dex-resistant subline MM-1R cells were kindly provided by Dr Steven Rosen (Northwestern University, Chicago, Ill.); the chemo-sensitive parental MM cell line RPMI-8226/S, and its chemo-resistant sublines RPMI-8226/Dox40 (doxorubicin-resistant), RPMI-8226/MR20 (mitoxantrone-resistant), RPMI-8226/LR5 (melphalan-resistant) cells were kindly provided by Dr William Dalton (lee Moffitt Cancer Center, Tampa, Fla.); the OCI-My5 cells were provided by Dr Meissner (University of Ontario, Toronto, Canada); the EJM, LP-1, KMM1, K620, OPM-1, and OPM-2 cells were provided by Dr Leif Bergsagel; INA-6 cells were provided by Renate Burger (University of Erlangen-Nuernberg, Germany); XG-1 cells were obtained from Dr Pierfrancesco Tassone (University of Magna Grecia, Italy); NCI-H929 and U266 cells were purchased from American Type Cell Culture (ATCC); MM-1S-myrAkt and MM-1S-Bcl-2 cells were established by stable transfection of MM-1S cells with constructs encoding for constitutively active myristoylated form of Akt and for Bcl-2, respectively. […] Purity (>95%) was assessed by both morphology and flow cytometry (Becton-Dickinson FACSort, Franklin Lakes, N.J.). […]"}, "BM stromal cells (BMSCs)": {"system": "BM stromal cells (BMSCs)", "assay": "Viability of bone marrow stromal cells (MTT)", "type": "cell-based, human", "details": "500 nM for 72 hrs", "protocol": "Primary MM patient samples were freshly isolated from bone marrow aspirates from patients undergoing diagnostic or restaging bone marrow aspirates under an IRB-approved protocol. MM cells were purified using custom-made RosetteSep cocktail of monoclonal antibodies (mAb's) (StemCell Technologies Inc, Vancouver, Canada) for negative selection of CD138^+ MM cells. The CD138^− fraction of the MM cell purification process was cultured in 20% FBS-supplemented media for isolation of the adherent bone marrow stromal cells. Peripheral blood B cells were isolated by ficoll-density centrifugation of peripheral blood samples from MM patients. […] […] At the end of each treatment, cells were incubated with 1 mg/ml MTT for 4 hours at 37° C.; a mixture of isopropanol and 1N HCl (23:2, v/v) was then added under vigorous pipetting to dissolve the formazan crystals. Dye absorbance (A) in viable cells was measured at 570 nm, with 630 nm as a reference wavelength. Cell survival was estimated as a percentage of the value of untreated controls. All experiments were repeated at least three times, and each experimental condition was repeated at least in quadruplicate wells in each experiment."}}}
{"smiles": "Nc1ncnc2c1c(-c1cccc(OCc3ccccc3)c1)cn2[C@H]1C[C@H](CN2CCCC2)C1", "note": "[ADW-742, trans-5-(3-benzyloxy-phenyl)-7-(3-pyrrolidin-1-ylmethyl-cyclobutyl)-7H-pyrrolo[2,3-d]pyrimidin-4-ylamine]", "values": [{"measurement": "serum-induced growth of primary MM patient samples", "setting": "primary MM tumor cells", "result": "completely suppresses"}, {"measurement": "viability of BM stromal cells", "setting": "BM stromal cells (BMSCs)", "result": "does not significantly affect"}]}
